Experimental data as given in US20080241101A1, “Skin vitalizing composition for external use anti-aging preparation” (Shiseido Company, Ltd., priority 2002, published 2008).

Tests used:
[1] = tested on: artificial skin basement membrane; assay: Transmission electron microscopy of basement membrane structure directly under the epidermis of artificial skin (Example 1); assay type: cell-based, human
Procedure: Collagen gel was obtained by preparing 10 ml of a human dermal fibroblasts (0.3-1×10^5 cell/ml)-suspended collagen solution (using I-AC collagen manufactured by Koken Co., Ltd.) on ice, followed by gelling the collagen in a 60 mm Petri dish at 37° C. The gel was then peeled from the bottom of the dish, the collagen gel was placed on metal, and a glass ring (12 mm inner diameter) was placed over the gel. A 0.4 ml portion of a human foreskin-derived epidermal keratinocyte (1×10^6/ml) suspension (KGM-DMEM (1:1) mixed medium containing 5% fetal bovine serum) was poured into the glass ring while avoiding leakage. The keratinocytes were allowed to adhere in a CO2 incubator overnight, and the ring was removed on the following day. The medium was filled in up to the border of the epidermal layer, and culturing was continued while exposing the epidermal layer to the air, to prepare a multilayered skin model with epidermis having a horny layer. […]

[2] = tested on: artificial skin (human dermal fibroblast collagen gel with human foreskin-derived epidermal keratinocytes); assay: Artificial skin culture with additives in the medium, H&E and type IV / type VII collagen immunostaining (Example 1); assay type: cell-based; settings: for staining of type IV and type VII collagen: cytokine (1 ng/ml interleukin-1β, 1 ng/ml TGF-α or 100 ng/ml PDGF) combined with 10 μg/ml aprotinin and 10 μM compound A
Procedure: Collagen gel was obtained by preparing 10 ml of a human dermal fibroblasts (0.3-1×10^5 cell/ml)-suspended collagen solution (using I-AC collagen manufactured by Koken Co., Ltd.) on ice, followed by gelling the collagen in a 60 mm Petri dish at 37° C. The gel was then peeled from the bottom of the dish, the collagen gel was placed on metal, and a glass ring (12 mm inner diameter) was placed over the gel. A 0.4 ml portion of a human foreskin-derived epidermal keratinocyte (1×10^6/ml) suspension (KGM-DMEM (1:1) mixed medium containing 5% fetal bovine serum) was poured into the glass ring while avoiding leakage. The keratinocytes were allowed to adhere in a CO2 incubator overnight, and the ring was removed on the following day. The medium was filled in up to the border of the epidermal layer, and culturing was continued while exposing the epidermal layer to the air, to prepare a multilayered skin model with epidermis having a horny layer.
From the 4th day after seeding the epidermal cells, the medium was replaced with medium containing (1) no compound (−compound A), (2) 10 uM of compound A (+compound A), (3) 10 μM of compound A and 10 μg/ml of aprotinin (+compound A+aprotinin), (4) 10 μM of compound A and 1 ng/ml of interleukin-1β (+compound A+IL-1), (5) 10 μM of compound A, 1 ng/ml of interleukin-1β and 10 μg/ml of aprotinin (+compound A+IL-1+aprotinin), (6) 10 μM of compound A and 1 ng/ml of TFG-α (+compound A+TGFα), (7) 10 μM of compound A, 1 ng/ml of TGF-α and 10 μg/ml aprotinin (+compound A, +TGFα+aprotinin), (8) 10 μM of compound A and 100 ng/ml PDGF (+compound A+PDGF) and (9) 10 μm of compound A, 100 ng/ml PDGF and 10 μg/ml of aprotinin (+compound A+PDGF +aprotinin), and every 2-3 days thereafter, the medium was exchanged with a medium containing the same types and same concentrations of […], extracellular matrix production accelerator (cytokines) and serine protease inhibitor, after which culturing was performed for 2 weeks.
The formed artificial skin was stained with hematoxylin and eosin (H&E) and immunostaining (using anti-type IV collagen antibody and anti-type VII collagen antibody).

[3] = cytokine (1 ng/ml interleukin-1β, 1 ng/ml TGF-α or 100 ng/ml PDGF) together with 10 μM compound A

Compound | staining of type IV and type VII collagen [2] | staining of type VII collagen [2, 3] | also measured
COc1ccc(S(=O)(=O)N(Cc2cccnc2)C(C(=O)NO)C(C)C)cc1.Cl (centres unmarked) [compound A, reference compound] | – | – | basement membrane structure directly under the epidermis (transmission electron microscope) ([1]; 10 μM compound A alone): induced formation of the basement membrane; staining of type VII collagen directly under the basal keratinocytes ([2]; 10 μM compound A alone in medium, 2 weeks culture, versus no-addition control): weak but definite staining of type VII collagen
aprotinin | – | – | basement membrane structure directly under the epidermis (transmission electron microscope) ([1]; 10 μg/ml aprotinin added with 10 μM compound A): increased the electron density and accentuated the continuity of the basement membrane; staining of type VII collagen ([2]; 10 μg/ml aprotinin added in addition to 10 μM compound A, 2 weeks culture): further increased
interleukin 1 (IL-1): matrix protein production-increasing cytokine, interleukin-1β | clearly concentrated directly under the basal keratinocytes, giving a sharp stained image | particularly accentuated | –
transforming growth factor-α (TGF-α): matrix protein production-increasing cytokine | clearly concentrated directly under the basal keratinocytes, giving a sharp stained image | particularly accentuated | –
